The results in this text go back to patent publication US10898583B2, “Harnessing quantum dots to study, visualize, and promote immune tolerance” (University of Maryland, College Park, priority 2016, dated 2021).

The test system of experiment [1] is transgenic 2D2 CD4+ T cells. Kind of experiment: 2D2 T cell proliferation (proliferation dye dilution) in DC co-culture. The experiment is classed as cell-based, mouse. As to conditions: DCs treated with CpG; 17 or 52 peptides per QD; 72 hours. Here is the method:
Stained cells were analyzed by flow cytometry.

Experiment [2] deals with experimental autoimmune encephalomyelitis (EAE). Kind of experiment: EAE induction, MOG-QD treatment and monitoring. The class given is in vivo, C57BL/6 mice. Particulars: single s.c. injection day 2, through day 21. As for the experimental part: C57BL/6 mice (female, 10-12 weeks) were induced with EAE following a defined protocol from Hooke Labs. Briefly, mice were injected s.c. with an emulsion of MOG and complete Freund's adjuvant (CFA) at the upper and lower back on day 0. Pertussis toxin was also administered intraperitoneally 2 and 24 hours after MOG/CFA injection. Beginning at day 7, mice were weighed to detect changes from day 0 body weight (a symptom of disease) and scored for disease severity with respect to paralysis. A standard clinical scoring rubric was used: 0—no symptoms, 1—limp tail, 2—weakness of hind legs, 3—hind limb paralysis, 4—hind limb paralysis and partial front limb paralysis, 5—moribund.^[6, 7, 15]
Mice induced with EAE were randomly divided into groups of 8-10 mice each. A control group was left untreated in each experiment. In one experiment, additional groups were treated by s.c. injection at the tailbase with 0.2 nanomoles QDs, 70 μg MOG, 70 μg CTRL peptide on 0.2 nanomoles QDs (100:1), or 70 μg MOG peptide on 0.2 nanomoles QDs (100:1). Similar experiments contained two treatment groups: 14.3 μg MOG on 0.4 nanomoles QDs (17:1) or 73 μg MOG on 0.2 nanomoles QDs (52:1). The final experiment design contained three treatment groups: 70 μg MOG on 0.5 nanomoles QDs (25:1), 70 μg MOG on 0.4 nanomoles QDs (52:1), or 70 μg MOG on 0.3 nanomoles QDs (65:1).

Where no end group is shown, it is not given here.

For the sequence “HHHHHSAAAAAGMEVGWYRSPFSRVVHLYRNGK [free MOG]”, in experiment [1], the “2D2 T cell proliferation” value was “equivalent”. The “disease progression (clinical score)” value in experiment [2] (100:1, 70 μg peptide on 0.2 nanomoles QDs or component controls) is recorded as “none of the groups except MOG-QDs caused significant differences in clinical scores”. Besides, the disease incidence entry in experiment [2] (100:1 or component controls) is given as “no differences in disease incidence”.
Consider “HHHHHSAAAAAGISQAVHAAHAEINEAGR (not fully specified) [free CTRL peptide]”, for which the “2D2 T cell proliferation” value in experiment [1] is “neither CTRL-QDs nor free CTRL peptide caused proliferation”.
